The text below walks through data of patent publication US20190269629A1, “COMPOSITIONS AND METHODS FOR INHIBITING GROWTH OF ACSL4-OVEREXPRESSING TUMORS” (CONSEJO NACIONAL DE INVESTIGACIONES CIENTÍFICAS Y TÉCNICAS …, priority 2016, published 2019).

Structures are written as SMILES.

What all share (type): cell-based, human
One test deals with ABCG2. As to the kind of experiment: Western blot of ABCG2 in MDA-MB-231 cells after ACSL4 inhibition. The conditions noted are these: Triacsin C 1 uM or rosiglitazone 100 uM, 48 h. The source says: (§1) A) MDA-MB-231 cells were transfected with the pSUPER.retro plasmid containing a shRNA targeted to ACSL4 (shRNA-ACSL4) or an empty plasmid (mock) as previously described ((Maloberti P. M. et al., 2010, supra).
(§2) One month post selection, whole cell extracts were obtained and analyzed by Western blot as previously described using the indicated antibodies. […] Forty-eight hours post-treatment, whole cell extracts were obtained and analyzed by Western blot as previously described using the indicated antibodies. Representative blots (upper panels) and integrated optical density of protein levels (lower panels) quantified and normalized with the corresponding 1-tubulin signal are shown.
(§3) J Biol Chem 2001; 276(27):24667-24673).
(§4) MDA-MB-231 cells were seeded the day before and grown up to 80% confluence. […] The empty vector was used as control. Transfection efficiency was estimated by counting fluorescent cells transfected with the pRc/CMVi plasmid containing the enhanced form of green fluorescent protein [Maloberti et al.; 2010].
(In western blotting, separated proteins are transferred to a membrane and probed.)

The subject of the next test is ABCC8. The test is described as follows: Western blot of ABCC8 in MDA-MB-231 cells after ACSL4 inhibition. Particulars: Triacsin C 1 uM or rosiglitazone 100 uM, 48 h.
Excerpt: as §1, §2, §3, §4

For test [1], the system named is MDA-MB-231 cells. As to the kind of experiment: BrdU cell proliferation assay, MDA-MB-231 cells. The conditions noted are these: for inhibition of MDA-MB-231 cell proliferation (BrdU): Triacsin C 0.01-0.10 M and/or doxorubicin 0.025 μM or paclitaxel 0.1 μM, 96 h; for dosage used in combination therapy relative to the minimum dose that produces a significant inhibition when administered alone: Triacsin C: in cell culture; for dosage used in combination therapy relative to the minimum dose that produces a significant inhibition when administered alone / amount used in combination relative to the maximum effective dose when applied alone (same inhibitory effect): combination therapy. As for the experimental part: Subsequently, cell proliferation was measured by BrdU incorporation assay. Data arc presented as inhibition of cell proliferation compared to control cells. White bars indicate single inhibitor treatment while grey bars indicate combined inhibitor treatment.
MDA-MB-231 cells were plated as described in FIG. 3 and then incubated with Triacsin C ([…]) and/or A. doxorubicin (0.025 μM), B. paclitaxel (0.1 μM) for 96 h. Subsequently, cell proliferation was measured by BrdU incorporation assay. Data are presented as inhibition of cell proliferation compared to control cells. White bars indicate single inhibitor treatment while black bars indicate combined inhibitor treatment.
(§5) Cell proliferation assays were measured by the MTT and 5-bromo-2′-deoxyuridine (BrdU) incorporation as previously described (Maloberti P. M. et al., 2010).
MBA-MB-231 cells were plated at a density of 4000 cells/well in 96-well plates with 10% FBS-supplemented D-MEM medium and allowed to adhere overnight at 37° C. in a humidified, 5% CO2 atmosphere. The medium was then changed to serum-free medium. […] Subsequently, cell proliferation was measured by the bromo-deoxvuridine (BrdU) incorporation assay.
MDA-MB-231 cells were plated at a density of 4000 cells/well in 96-well plates with 10% FBS-supplemented D-MEM medium and allowed to adhere overnight at 37° C. in a humidified, 5% CO2 atmosphere. The medium was then changed to serum-free medium. […] Subsequently, cell proliferation was measured by the bromo-deoxyuridine (BrdU) incorporation assay.
(§6) MBA-MB-231 cells were plated at a density of 4000 cells/well in 96-well plates with 10% FBS-supplemented D-MEM medium and allowed to adhere overnight at 37° C. in a humidified, 5% CO2 atmosphere. The medium was then changed to serum-free medium. After 24 h, the cells were switched to 10% FBS-supplemented D-MEM medium and incubated with doxorubicin and/or Triacsin C for 96 h. Subsequently, cell proliferation was measured by the bromo-deoxyuridine (BrdU) incorporation assay.
MDA-MB-231 cells were plated at a density of 4000 cells/well in 96-well plates with 10% FBS-supplemented D-MEM medium and allowed to adhere overnight at 37° C. m a humidified, 5% CO2 atmosphere. The medium was then changed to serum-free medium. After 24 h. the cells were switched to 10% FBS-supplemented D-MEM medium and incubated with paclitaxel and/or Triacsin C for 96 h. Subsequently, cell proliferation was measured by the bromo-deoxvuridine (BrdU) incorporation assay.

A further test has as its system ABCC4. As to the kind of experiment: Western blot of ABCC4 in MDA-MB-231 cells after ACSL4 inhibition. Particulars: Triacsin C 1 uM or rosiglitazone 100 uM, 48 h.
Excerpt: as §1, §2, §3, §4

For test [2], the system named is MCF-7 Tet-Off empty vector cells. The test is described as follows: BrdU cell proliferation assay, MCF-7 Tet-Off empty vector cells. Particulars: doxorubicin 0.025, 0.050, 0.100 μM or paclitaxel 0.1, 0.2, 0.5 μM, 96 h. As for the experimental part: (§7) MCF-7 Tet-Off empty vector and MCF-7 Tet-Off/ACSL4 cells were plated at a density of 4000 cells/well in 96-well plates with 10% FBS-supplemented D-MEM and allowed to adhere overnight at 37° C. in a humidified 5% CO2 atmosphere. The medium was then changed to serum-free medium. After 24 h, the cells were switched to 10% FBS-supplemented D-MEM with A. doxorubicin (0.025-0.100 μM) and B. paclitaxel (0.1-0.5 μM), and with doxycycline (0.025 μM) where indicated. After 48 h, cell proliferation was measured by BrdU incorporation assay. Data are presented as inhibition of cell proliferation compared to control cells.
as §5
Separate experiments were carried out for each one of the tested chemotherapeutic agents. […]
MCF-7 Tet-Off empty vector and MCF-7 Tet-Off/ACSL4 cells were plated at a density of 4000 cells/well in 96-well plates with 10% FBS-supplemented D-MEM medium and allowed to adhere overnight at 37° C. in a humidified, 5% CO2 atmosphere. […] Subsequently, cell proliferation was measured by the bromo-deoxyuridine (BrdU) incorporation assay. […]

Test [3] has as its system MDA-MB-231 cells. As to the kind of experiment: BrdU cell proliferation assay, MDA-MB-231 cells. Particulars: rosiglitazone 20 μM and/or doxorubicin 0.025 μM or paclitaxel 0.5 μM; 96 h.
For test [4], the system named is MCF-7 Tet-Off/ACSL4 cells. As to the kind of experiment: BrdU cell proliferation assay, MCF-7 Tet-Off/ACSL4 cells. As for the experimental part: as §7, §5
Separate experiments were carried out for each one of the tested chemotherapeutic agents. Each chemotherapeutic agent was first tested alone at the concentrations used, and then in combination with doxycycline, for each of the cell groups: MCF-7 Tet-Off/ACSL4 cells, MCF-7 Tet-Off empty vector cells and doxycycline-treated MCF-7 Tet-Off/ACSL4 cells, the latter is used to specifically override ACSL4 expression.
as §6, with “MCF-7 Tet-Off empty vector and MCF-7 Tet-Off/ACSL4” for “MBA-MB-231”, “at varying (sub-therapeutically effective or non-effective per se) concentrations (0.025, 0.050, 0.100 μM)” for “and/or Triacsin C”
MCF-7 Tet-Off empty vector and MCF-7 Tet-Off/ACSL4 cells were plated at a density of 4000 cells/well in 96-well plates with 10% FBS-supplemented D-MEM medium and allowed to adhere overnight at 37° C. in a humidified, 5% CO2 atmosphere. The medium was then changed to serum-free medium. After 24 h, the cells were switched to 10% FBS-supplemented D-MEM medium and incubated with paclitaxel at varying (sub-therapeutically effective or non-effective per se) concentrations (0.1, 0.2, 0.5 μM) for 96 h. Subsequently, cell proliferation was measured by the bromo-deoxyuridine (BrdU) incorporation assay.

[5] abbreviates: MCF-7 Tet-Off/ACSL4 cells, doxorubicin 0.025, 0.050, 0.100 μM or paclitaxel 0.1, 0.2, 0.5 μM, 96 h.
Where [6] appears, read: doxycycline-treated MCF-7 Tet-Off/ACSL4 cells, doxorubicin 0.025-0.100 μM or paclitaxel 0.1-0.5 μM.

On to `CCC/C=C/C/C=C/C=C/C=NNN=O` [Triacsin C, N-(((2E,4E,7E)-undeca-2,4,7-trienylidene)amino)nitrous amide], for which the ABCG2 protein levels result with ABCG2 was “markedly decreased”. Moreover, the ABCC8 protein levels entry in the test on ABCC8 is given as “markedly decreased”. Besides, in the test with MDA-MB-231 cells [1], the “inhibition of MDA-MB-231 cell proliferation (BrdU)” value is given as “very little effect” and the “dosage used in combination therapy relative to the minimum dose that produces a significant inhibition when administered alone” value came to 5 times lower. Further, the ABCC4 protein levels result with ABCC4 is reported as “markedly decreased”.
Regarding `CC(=O)O[C@H]1C(=O)[C@@]2(C)[C@H]([C@H](OC(=O)c3ccccc3)[C@]3(O)C[C@H](OC(=O)[C@H](O)[C@@H](NC(=O)c4ccccc4)c4ccccc4)C(C)=C1C3(C)C)[C@]1(OC(C)=O)CO[C@@H]1C[C@@H]2O` [paclitaxel], the “inhibition of cell proliferation (BrdU)” value in test [2] is “inhibited proliferation”; in test [4] (setting [5]), “little or no effect”; in test [4] (setting [6]), “significantly increased inhibition of cell proliferation”. In addition, the “inhibition of MDA-MB-231 cell proliferation (BrdU)” value in the test with MDA-MB-231 cells [3] and in the test with MDA-MB-231 cells [1] was “very little effect” each time. Moreover, the “amount used in combination relative to the maximum effective dose when applied alone (same inhibitory effect)” value in the test with MDA-MB-231 cells [1] came out at 5 times lower. Also, the “dosage used in combination therapy relative to the minimum dose that produces a significant inhibition when administered alone” value in the test on MDA-MB-231 cells [1] was “half”.
Turning to `COc1cccc2c1C(=O)c1c(O)c3c(c(O)c1C2=O)C[C@@](O)(C(=O)CO)C[C@@H]3O[C@H]1C[C@H](N)[C@H](O)[C@H](C)O1` [doxorubicin], the results for the “inhibition of cell proliferation (BrdU)” value in test [2], in test [4] (setting [5]) and in test [4] (setting [6]) were “inhibited proliferation”, “very little or no effect” and “significantly increased inhibition of cell proliferation”, respectively. Also, the “inhibition of MDA-MB-231 cell proliferation (BrdU)” value in the test with MDA-MB-231 cells [3] and with MDA-MB-231 cells [1] was “very little effect” in each case. Moreover, in the test on MDA-MB-231 cells [1], the “amount used in combination relative to the maximum effective dose when applied alone (same inhibitory effect)” value turned out to be 12 times lower. For the same molecule, the “dosage used in combination therapy relative to the minimum dose that produces a significant inhibition when administered alone” value in the test with MDA-MB-231 cells [1] stood at 2.6 times lower.
